Measured values reported in patent US4107307A, “Imidazo [1,5-d]-as-triazine-4(3H)-ones and thiones” (American Cyanamid Company, priority 1977, dated 1978).

Experiments:
[1] = system: Mouse Skin Phosphodiesterase; assay: Mouse skin phosphodiesterase (PDE) inhibition test (A); type: biochemical, hairless mice; design: key: Active: A compound is considered active if it inhibits more than theophylline, that is, to 50% of control at 1 mM concentration of compound, or to 80% of control of 0.05 mM concentration of compound; details: mouse epidermal PDE, test compound 10 ug./ml., 30° C. 15 min
[2] = system: Monkey Lung Cyclic AMP Phosphodiesterase; assay: Monkey lung cyclic AMP phosphodiesterase inhibition test (B); type: biochemical, African green monkeys; details: method: monkey lung PDE, 10^-6 M cyclic AMP, compound usually 1 mM or 0.1 mM, 25° C. 20 min
Description: The inhibition of phosphodiesterase is determined by the mouse skin and monkey lung phosphodiesterase (PDE) inhibition tests as follows:
(B) MONKEY LUNG INHIBITION
Preparation of Monkey Lung Cyclic AMP Phosphodiesterase
Lung parenchyma of African green monkeys is homogenized in a Waring blender and centrifuged at 40,000 × gravity for 20 minutes. The supernatant is brought to 70% saturation of ammonium sulfate, centrifuged and the pellet redissolved and dialysed, before aliquoting and storage at -20° C.
Assay of Monkey Lung Phosphodiesterase
Phosphodiesterase is assayed by the method of Thompson and Appleman, ibid. An assay tube contains a 0.4 ml. solution of the following: 45 mM tris-HCl buffer, pH 7.4, […], 0.1 mM dithioerythritol, 10^-6 M cyclic AMP, 0.1 uCi [^3 H]-cyclic AMP, and test compound at the desired concentration (usually 1 mM or 0.1 mM). Compounds not readily soluble in water are dissolved at 40 times the desired concentration in methanol, and diluted 20 times with water. If the compound is not dissolved at this time, it is suspended by sonication before being diluted 1:2 into the assay tube. In this case the activity of the enzyme in the presence of the compound is compared to a solvent control (2.5% methanol), although the solvent alone has negligible effect. The reaction is initiated by addition of enzyme and proceeds at 25° C. for 20 minutes. It is terminated by incubation at 100° C. for 2 minutes. The tubes are cooled to 25° C., 0.8 ug of 5'-nucleotidase (Crotolu adamantus toxin) is added to each and the tubes incubated at 25° C. for 30 minutes. A 1 milliliter suspension of Bio-Rad Labs. AGIX8 (about 0.5 ml. of settled resin) is added, the tubes centrifuged at 900 × gravity for 10 minutes and an aliquot of supernatant removed for scintillation counting. The inhibition by the test compound is calculated as: [formula] where `compound` is the cpm in the presence of compound, `control` is the cpm in the absence of compound, and `blank` is the cpm in the absence of enzyme. […] For this reason, control tubes which contained [^3 H]-AMP instead of [^3 H]-cyclic AMP are run in parallel. A correction of the apparent phosphodiesterase activity is made for the rare compound which inhibited the hydrolysis of AMP.

[3] = system: spontaneous hypertensive rats; assay: Anti-hypertensive activity, mean arterial blood pressure of conscious spontaneous hypertensive rats; type: in vivo, rat (adult male spontaneous hypertensive); details: second identical dose at 24th hour, vehicle controls 166
Description: These compounds have been tested pharmacologically and found to have such properties with a desirable wide spread between doses producing lowered blood pressure and toxic symptoms. In determining this effect of these compounds on hypertension, adult male, 16-20 weeks old, spontaneous hypertensive rats from Taconic Farms, Germantown, N.Y., weighing about 300 grams are used. The rats are dosed by gavage with the test compounds at the indicated dose. All doses of drug were suspended in 2% starch (2 ml./kg.). A second identical dose of the test compound is given at the 24th hour. The mean arterial blood pressure (MAP) of the conscious rats is measured directly by femoral artery puncture at the 28th hour.

[4] = Dispersion of aerosol suspension on warming after storage; type: physicochemical; details: aerosol in dichlorodifluoromethane with sorbitan trioleate
Description: The active ingredient and sorbitan trioleate are placed in a beaker and the dichlorodifluoromethane is added at -40° C. whereupon a suspension is formed. The mixture is sonified, that is, treated with a Sonifier, manufactured by the Branson Sonic Power Co. of Danbury, Conn., as model LS-75 at a current input of 9 amperes for 2 minutes. Additional cold dichlorodifluoromethane is added as necessary to keep the volume at 100 ml. The mixture is uniformly dispersed, and has increased stability resulting from the sonification. Each of six 19 ml. stainless steel containers are filled with 15 ml. of the cold mixture, then valves are inserted and sealed in place.

| Mouse Skin Phosphodiesterase (A) [1] | Monkey Lung Phosphodiesterase (B) [2] | Structure (SMILES) | MAP 28th hour ([3]; 100 mg/kg by gavage) [mm Hg] | further results |
| --- | --- | --- | --- | --- |
| Active | Active | O=c1[nH]ncc2c(Br)nc(-c3ccccc3)n12 [8-Bromo-6-phenyl-imidazo[1,5-d]-as-triazin-4(3H)-one] | – | – |
| Active | Active | O=c1[nH]ncc2c(Cl)nc(-c3ccccc3)n12 [8-Chloro-6-phenyl-imidazo[1,5-d]-as-triazin-4(3H)-one] | – | – |
| Active | Active | CCCc1nc(C)c2cn[nH]c(=S)n12 [8-Methyl-6-n-propyl-imidazolo[1,5-d]-as-triazine-4(3H)-thione] | – | – |
| Active | Active | Cc1nc(-c2ccccc2)n2c(=O)[nH]ncc12 [8-Methyl-6-phenyl-imidazo[1,5-d]-as-triazin-4(3H)-one] | 133 | – |
| Active | – | Cc1nc(-c2ccccc2)n2c(=S)[nH]ncc12 [8-Methyl-6-phenyl-imidazo[1,5-d]-as-triazine-4-(3H)-thione] | 128 | – |
| Active | – | Cc1ncn2c(=O)[nH]ncc12 [8-Methyl-imidazo[1,5-d]-as-triazin-4(3H)-one] | 91 | – |
| Active | – | Cc1ncn2c(=S)[nH]ncc12 [8-Methyl-imidazo[1,5-d]-as-triazine-4-(3H)-thione] | – | MAP 28th hour ([3]; 25 mg/kg by gavage): 130 mm Hg |

More lines, now with the values behind:

| Structure (SMILES) | Mouse Skin Phosphodiesterase (A) [1] | Monkey Lung Phosphodiesterase (B) [2] | MAP 28th hour ([3]; 100 mg/kg by gavage) [mm Hg] | further results |
| --- | --- | --- | --- | --- |
| Cc1nc(C)n2c(=O)[nH]ncc12 [6,8-Dimethyl-imidazo[1,5-d]-as-triazin-4(3H)-one] | Active | Active | – | MAP 28th hour ([3]; 50 mg/kg by gavage): 70 mm Hg |
| Cc1nc(C)n2c(=S)[nH]ncc12 [6,8-Dimethyl-imidazo[1,5-d]-as-triazine-4-(3H)-thione] | Active | – | 93 | – |
| Cc1nc(Cc2ccccc2)n2c(=O)[nH]ncc12 [6-Benzyl-8-methyl-imidazo[1,5-d]-as-triazin-4(3H)-one] | Active | – | – | – |
| Cc1nc(Cc2ccccc2)n2c(=S)[nH]ncc12 [6-Benzyl-8-methyl-imidazo[1,5-d]-as-triazine-4(3H)-thione] | Active | Active | – | – |
| O=c1[nH]ncc2cnc(Cc3ccccc3)n12 [6-Benzyl-imidazo[1,5-d]-as-triazin-4(3H)-one] | Active | – | – | – |
| COCc1ncc2cn[nH]c(=S)n12 [6-Methoxymethyl-imidazo[1,5-d]-as-triazine-4-(3H)-thione] | – | – | 100 | – |
| Cc1ncc2cn[nH]c(=O)n12 [6-Methyl-imidazo[1,5-d]-as-triazin-4(3H)-one] | – | – | 120 | – |
| O=c1[nH]ncc2cnc(-c3ccccc3)n12 [6-Phenyl-imidazo[1,5-d]-as-triazin-4(3H)-one] | Active | – | 117 | – |
| CCCc1ncc2cn[nH]c(=O)n12 [6-n-Propyl-imidazo[1,5-d]-as-triazin-4(3H)-one] | Active | – | – | – |
| CCCc1ncc2cn[nH]c(=S)n12 [6-n-Propyl-imidazo[1,5-d]-as-triazine-4(3H)-thione] | Active | Active | 136 | – |
| CCCOc1ccccc1-c1ncc2cn[nH]c(=O)n12 [6-o-Propoxyphenyl-imidazo[1,5-d]-as-triazine-4(3H)-one] | Active | – | – | – |
| Cc1nc(C(C)(C)C)n2c(=O)[nH]ncc12 [6-tert-Butyl-8-methyl-imidazo[1,5-d]-as-triazin-4(3H)-one] | Active | Active | 133 | – |
| CC(C)(C)c1ncc2cn[nH]c(=O)n12 [6-tert-Butyl-imidazo[1,5-d]-as-triazin-4(3H)-one] | Active | – | 135 | – |
| CCCc1nc(C)c2cn[nH]c(=O)n12 [8-Methyl-6-n-propyl-imidazo[1,5-d]-as-triazin-4(3H)-one] | – | – | – | MAP 28th hour ([3]; 50 mg/kg by gavage): 127 mm Hg |
| CC(C)c1nc(Cl)c2cn[nH]c(=S)n12 [8-chloro-6-isopropyl-imidazo[1,5-d]-as-triazine-4(3H)-thione] | – | – | – | dispersion after storage [4]: remains dispersed |
| S=c1[nH]ncc2cncn12 [Imidazo[1,5-d]-as-triazin-4(3H)-thione, Imidazo[1,5-d]-as-triazine-4(3H)-thione] | – | – | 123 | – |
